Measurements from US20090176817A1, “Method of Treatment of Diarrhea-Predominant Irritable Bowel Syndrome in a Subject” (priority 2005, published 2009).
Marks after values point to notes of the source that are not given here.

What was measured:
[1] = clinical; conditions: human, in vivo, iv
Experimental: The pharmacokinetics of intravenously administered cilansetron have also been evaluated in several studies. In a randomized, double-blind, placebo controlled, rising dose, crossover study in 24 male subjects, aged 23-37 years, the single-dose pharmacokinetics of IV cilansetron were evaluated over a 4 mg to 16 mg dose range. Subjects received, at intervals of 1 week, single doses of 4, 8, and 16 mg IV cilansetron in ascending order and a randomized placebo. Infusion times ranged from 15-30 minutes. All doses were administered under fasted conditions.
In a randomized, double-blind, placebo controlled, rising dose, crossover study, 24 male subjects (aged 23-37 years) received single doses of 4, 8, and 16 mg IV cilansetron in ascending order and a randomized placebo, infused over 15-30 minutes. All doses were administered under fasted conditions. FIG. 14 and FIG. 15 present box plots of cilansetron AUC(0-inf) and dose-normalized AUC(0-inf) values (normalized to a 1 mg dose), respectively, and Table 2.7.2.3.13 presents descriptive statistics for the results of statistical pairwise comparisons of dose-normalized parameters between doses.

[2] = tested on: healthy, elderly subjects; test: Study K.241.5013: colonic transit time, elderly, 4 mg TID; format: in vivo, human; conditions: 4 mg TID oral 14 days, mean (SD)
Description: The effect of cilansetron on gastric emptying time and colonic transit time has been studied in 1 clinical study in healthy young subjects and 2 studies in elderly subjects. For measurement of gastric emptying time, breath samples for the determination of the ^12C/^13C ratio were taken on the last day of each treatment period immediately after ingestion of a ^13C labeled meal. The patients' breath was collected in separate 15-minute intervals, for four hours in total. ^13CO2 measurements were performed with an isotope ratio mass spectrometer. The half-life (TK) and lag-time (Tlag), which describe the duration of gastric emptying, were used as the primary parameters to evaluate gastric emptying time. In all 3 studies, colonic transit time was measured by administration of radio-opaque markers for the last six days of each treatment period, followed by a single abdominal X-ray image at 24 hours after ingestion of the last set of markers. The numbers of markers within the colon were used to calculate segmental (right colon, left colon, and rectosigmoid) and total colonic transit time.
Studies K.241.5013 and K.241.5014 were randomized, double-blind, placebo-controlled, 2-way crossover studies in 8 healthy male and female elderly subjects, each (ITT population, aged 64-83 years in K.241.5013 and 66-84 years in K.241.5014). Elderly subjects were selected for these studies because they commonly suffer from constipation and it was of interest whether cilansetron would prolong gastrointestinal transit times in this population. Subjects received cilansetron 4 mg or placebo in Study K.241.5013 and cilansetron 8 mg or placebo in Study K.241.5014. Treatments were administered orally TID for 14 days during each period, with a 14-day washout between periods. The primary efficacy parameter was the total mean colonic transit time during each treatment and the secondary parameters were the segmental colonic transit times and the gastric emptying measurements. One-sided t-tests were used to compare efficacy parameters between the cilansetron and placebo treatments.

[3] = in vitro; format: in vitro ADME; conditions: human, plasma
Experimental: Protein binding was also evaluated in an in vitro study in human, mouse, rat, and dog plasma using equilibrium dialysis (12-14K molecular weight cut-off membrane). This study measured the binding of (^14C)-cilansetron in plasma at nominal concentrations (30, 90, and 300 ng/mL) which are much higher than those encountered in vivo in humans. This study also measured the binding of (^14C)-cilansetron to purified human serum albumin at cilansetron concentrations ranging from 30-3000 ng/mL and to purified human alpha-1 acid glycoprotein (AAG) at concentrations ranging from 30-10000 ng/mL.

[4] = both, human, in vivo
Experimental: The effect of renal impairment on the pharmacokinetics of cilansetron was evaluated in a study excluding subjects with end-stage renal disease, and utilizing a single-center, open-label, multiple-dose, parallel group study in 13 male and 9 female subjects, aged 33-74 years. […] Healthy subjects were matched to renally-impaired subjects with respect to age, weight, gender, and smoking status. All subjects received oral cilansetron 2 mg TID on Days 1 to 5, and a single dose on the morning of Day 6. Blood samples for measurement of plasma pharmacokinetics of cilansetron and its 4-hydroxy metabolites were collected up to 24 hours following dosing on Day 6, and log-transformed pharmacokinetic parameters for these analytes were statistically compared between study groups. Serum concentrations of unbound cilansetron and its 4-hydroxy metabolites were also measured prior to dosing and at 1 and 1.5 hours postdose on Day 6.

[5] = tested on: CYP3A5; conditions: hepatocytes

Cc1nccn1C[C@H]1CCc2c(c3cccc4c3n2CCC4)C1=O [Cilansetron, (R)-(−)-4,5,6,8,9,10-hexahydro-10-[(2-methyl-1H-imidazol-1-yl)methyl]-11H-pyrido-[3,2,1-jk]-carbazol-11-one]
clearance [1]: 550 to 800 mL/min
DN-AUC(0-inf) ratio 8 mg/4 mg ([1]; male): 121%
DN-AUC(0-inf) ratio 16 mg/4 mg ([1]; male): 124%
DN-AUC(0-inf) ratio 16 mg/8 mg ([1]; male): 102%
DN-AUC(0-last) ratio 8 mg/4 mg ([1]; male): 123%
DN-AUC(0-last) ratio 16 mg/4 mg ([1]; male): 126%
DN-AUC(0-last) ratio 16 mg/8 mg ([1]; male): 102%
Renal elimination ([1]; male): < 1 % of dose
clearance ([1]; male): 550 to 700 mL/min
half-life ([1]; male): 1.4 to 1.7 h
AUC(0-inf) ([1]; male, 4 mg): 103 ng·h/mL
AUC(0-t) ([1]; male, 4 mg): 100 ng·h/mL
CL renal ([1]; male, 4 mg): 2.95 mL/min
Vd ([1]; male, 4 mg): 99 L
clearance ([1]; male, 4 mg): 680 mL/min
half-life ([1]; male, 4 mg): 1.7 h
AUC(0-inf) ([1]; male, 8 mg): 254 ng·h/mL
AUC(0-t) ([1]; male, 8 mg): 251 ng·h/mL
CL renal ([1]; male, 8 mg): 2.64 mL/min
Vd ([1]; male, 8 mg): 78 L
clearance ([1]; male, 8 mg): 567 mL/min
half-life ([1]; male, 8 mg): 1.62 h
AUC(0-inf) ([1]; male, 16 mg): 525 ng·h/mL
AUC(0-t) ([1]; male, 16 mg): 518 ng·h/mL
CL renal ([1]; male, 16 mg): 2.65 mL/min
Vd ([1]; male, 16 mg): 68 L
clearance ([1]; male, 16 mg): 564 mL/min
half-life ([1]; male, 16 mg): 1.41 h
Transit Times, Colon Total [2]: 55.5 (41.3) hours
Transit Times, Colonic Segments Left [2]: 21.9 (16.0) hours
Transit Times, Colonic Segments Rectosigmoid [2]: 6.3 (8.3) hours
Transit Times, Colonic Segments Right [2]: 27.3 (29.2) hours
fraction unbound [3]: 0.042
AUC(0-τ) ratio Mild/Healthy [4]: 71 (38, 132) %
AUC(0-τ) ratio Moderate/Healthy [4]: 49 (25, 95) %
AUC(0-τ) ratio Renal Combined/Healthy [4]: 76 (47, 124) %
AUC(0-τ) ratio Severe/Healthy [4]: 130 (66, 254) %
CL/F ratio Mild/Healthy [4]: 141 (76, 264) %
CL/F ratio Moderate/Healthy [4]: 206 (105, 403) %
CL/F ratio Renal Combined/Healthy [4]: 131 (81, 213) %
CL/F ratio Severe/Healthy [4]: 77 (39, 151) %
Cmax ratio Mild/Healthy [4]: 83 (50, 140) %
Cmax ratio Moderate/Healthy [4]: 55 (32, 96) %
Cmax ratio Renal Combined/Healthy [4]: 90 (60, 134) %
Cmax ratio Severe/Healthy [4]: 156 (89, 272) %
T½ ratio Mild/Healthy [4]: 85 (63, 114) %
T½ ratio Moderate/Healthy [4]: 65 (47, 89)* %
T½ ratio Renal Combined/Healthy [4]: 78 (62, 99) %
T½ ratio Severe/Healthy [4]: 87 (64, 120) %
Tmax ([4]; 2 mg): 1.13 h
CYP3A5 mRNA [5]: doubled
